The values below come from patent publication US12599640B2, “Lactobacillus plantarum ZUST49 and bacterial agent, and use thereof” (ZHEJIANG UNIVERSITY OF SCIENCE AND TECHNOLOGY, priority 2023, dated 2026).

This data set can be described thus: Production of sulforaphane by feeding mice with enteric capsule (plasma sulforaphane, cyclocondensation method). In kind it is in vivo. As to conditions: mouse plasma; intragastric glucoraphanin aqueous solution, 150 μmol of glucoraphanin/kg; blood taken at 0 h and 12 h. The text has this:
C57BL/6 male mice of 6 to 8 weeks were pre-reared for 1 week and randomly divided into an enteric capsule group, a glucoraphanin group, and a blank group. Mice in the enteric capsule group were intragastrically administered daily with an enteric capsule aqueous solution containing Lactobacillus plantarum ZUST49 and glucoraphanin (150 μmol of glucoraphanin/kg and ZUST49 content of 8.7×10^5 CFU/g, and prepared according to the method of example 3). The mice in the glucoraphanin group were intragastrically administrated with a glucoraphanin aqueous solution (150 μmol of glucoraphanin/kg). The mice were fed with food and water ad libitum. Food intake and weight were recorded daily. The mice were deeply anesthetized with an intraperitoneal injection of ketamine/xylazine (87 mg/mL and 13 mg/mL respectively, and 0.1 mL/100 g mice) at 0 h and 12 h (6 mice/group each time period), and put to death by cervical dislocation after blood collection by cardiac puncture. The sulforaphane content in plasma of the mice was determined by a cyclocondensation method.

Structures are written as SMILES.

In the case of `C[S+]([O-])CCCC/C(=N\OS(=O)(=O)O)S[C@@H]1O[C@H](CO)[C@@H](O)[C@H](O)[C@H]1O` (stereo partly shown) [glucoraphanin], the “sulforaphane content in the plasma of the mice” value stood at 0.017 ± 0.030 µM.
